# From US8802597B2, “Herbicidal pyrimidines” (E I du Pont de Nemours and Company, priority 2003, dated 2014)
# Read-outs that look alike come from different tables or passages of the source.
# Columns and labels:
# Format in all cases: in vivo
# [1] = tested on: Surinam grass (Brachiaria decumbens); test: Test B pre/postemergence; conditions: Urochloa decumbens; for pest or weed control at 125 g/ha: 125 g ai/ha; for pest or weed control at 500 g/ha: 500 g ai/ha
# Method in brief: (§1)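 Visual injury scored 0 (no effect) to 100 (complete control) versus untreated controls after 13 to 15 days in greenhouse. Treatments were pre- or postemergence sprays of surfactant-containing solvent formulations; postemergence plants at 1- to 4-leaf stage, 2 to 18 cm.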
# [2] = tested on: barnyardgrass (Echinochloa crus-galli); test: Test B pre/postemergence; conditions: Echinochloa crus-galli; for pest or weed control at 125 g/ha: 125 g ai/ha; for pest or weed control at 500 g/ha: 500 g ai/ha
# Method in brief: as §1
# [3] = tested on: cocklebur (Xanthium strumarium); test: Test B pre/postemergence; conditions: Xanthium strumarium; for pest or weed control at 125 g/ha: 125 g ai/ha; for pest or weed control at 500 g/ha: 500 g ai/ha
# Method in brief: as §1
# corn (Zea mays) = test: Test B pre/postemergence; conditions: Zea mays
# Method in brief: as §1
# [4] = tested on: crabgrass (Digitaria sanguinalis); test: Test B pre/postemergence; conditions: Digitaria sanguinalis; for pest or weed control at 125 g/ha: 125 g ai/ha; for pest or weed control at 500 g/ha: 500 g ai/ha
# Method in brief: as §1
# [5] = tested on: giant foxtail (Setaria faberii); test: Test B pre/postemergence; conditions: Setaria faberi; for pest or weed control at 125 g/ha: 125 g ai/ha; for pest or weed control at 500 g/ha: 500 g ai/ha
# Method in brief: as §1
# [6] = tested on: lambsquarters (Chenopodium album); test: Test B pre/postemergence; conditions: Chenopodium album; for pest or weed control at 125 g/ha: 125 g ai/ha; for pest or weed control at 500 g/ha: 500 g ai/ha
# Method in brief: as §1
# [7] = tested on: morningglory (Ipomoea coccinea); test: Test B pre/postemergence; conditions: Ipomoea; for pest or weed control at 125 g/ha: 125 g ai/ha; for pest or weed control at 500 g/ha: 500 g ai/ha
# Method in brief: as §1
# [8] = tested on: pigweed (Amaranthus retroflexus); test: Test B pre/postemergence; conditions: Amaranthus retroflexus; for pest or weed control at 125 g/ha: 125 g ai/ha; for pest or weed control at 500 g/ha: 500 g ai/ha
# Method in brief: as §1
# [9] = tested on: velvetleaf (Abutilon theophrasti); test: Test B pre/postemergence; conditions: Abutilon theophrasti; for pest or weed control at 125 g/ha: 125 g ai/ha; for pest or weed control at 500 g/ha: 500 g ai/ha
# Method in brief: as §1
# [10] = tested on: wheat (Triticum aestivum); test: Test B pre/postemergence; conditions: Triticum aestivum; for plant injury at 125 g/ha: 125 g ai/ha; for plant injury at 500 g/ha: 500 g ai/ha
# Method in brief: as §1
# [11] = tested on: blackgrass (Alopecurus myosuroides); test: Test B postemergence; conditions: Alopecurus myosuroides, post-emergence
# Method in brief: as §1
# wild oat (Avena fatua) = test: Test B postemergence; conditions: Avena fatua, post-emergence
# Method in brief: as §1
# [12] = tested on: barnyardgrass (Echinochloa crus-galli); test: Test B flooded paddy test; conditions: Echinochloa crus-galli, Flood, 1000 g ai/ha; scale 0 (no effect) to 100 (complete control); read-out: Plant response rating, Barnyardgrass
# Method in brief: (§2)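 Rice, umbrella sedge, duck salad and barnyardgrass grown to 2-leaf stage under flooded paddy conditions and treated with formulated test chemicals. Kept in greenhouse 13–15 days, then visually rated against untreated controls on a 0–100 scale (0 no effect, 100 complete control).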
# [13] = tested on: duck salad (Heteranthera limosa); test: Test B flooded paddy test; conditions: Heteranthera limosa, Flood, 1000 g ai/ha; scale 0 to 100; read-out: Plant response rating, Ducksalad
# Method in brief: as §2
# rice (Oryza sativa) = test: Test B flooded paddy test; conditions: Oryza sativa, Flood, 1000 g ai/ha; scale 0 to 100; read-out: Plant response rating, Rice
# Method in brief: as §2
# [14] = tested on: umbrella sedge (Cyperus difformis); test: Test B flooded paddy test; conditions: Cyperus difformis, Flood, 1000 g ai/ha; scale 0 to 100; read-out: Plant response rating, Sedge, Umbrella
# Method in brief: as §2
compound,measurement,setting,value
COC(=O)c1nc(C2CC2)nc(N)c1F [Compound 25],pest or weed control at 125 g/ha,"[1]; post-emergence, Postemergence, scale 0 to 100 (0 no effect, 100 complete control), read-out: Surinam Grass plant response rating",50%
same,pest or weed control at 500 g/ha,"[1]; post-emergence, Postemergence, scale 0 to 100, read-out: Plant response rating, Surinam Grass",70%
same,pest or weed control at 125 g/ha,"[1]; pre-emergence, Preemergence, scale 0 to 100 (0 no effect, 100 complete control), read-out: Plant response rating, Surinam Grass",20%
same,pest or weed control at 500 g/ha,"[1]; pre-emergence, Preemergence, scale 0 to 100 (0 no effect, 100 complete control), read-out: Surinam Grass plant response rating",70%
same,pest or weed control at 125 g/ha,"[2]; post-emergence, Postemergence, scale 0 to 100 (0 no effect, 100 complete control), read-out: Barnyardgrass plant response rating",40%
same,pest or weed control at 500 g/ha,"[2]; post-emergence, Postemergence, scale 0 to 100, read-out: Plant response rating, Barnyardgrass",80%
same,pest or weed control at 125 g/ha,"[2]; pre-emergence, Preemergence, scale 0 to 100 (0 no effect, 100 complete control), read-out: Plant response rating, Barnyardgrass",20%
same,pest or weed control at 500 g/ha,"[2]; pre-emergence, Preemergence, scale 0 to 100 (0 no effect, 100 complete control), read-out: Barnyardgrass plant response rating",60%
same,pest or weed control at 125 g/ha,"[3]; post-emergence, Postemergence, scale 0 to 100 (0 no effect, 100 complete control), read-out: Cocklebur plant response rating",90%
same,pest or weed control at 500 g/ha,"[3]; post-emergence, Postemergence, scale 0 to 100, read-out: Plant response rating, Cocklebur",90%
same,pest or weed control at 125 g/ha,"[3]; pre-emergence, Preemergence, scale 0 to 100 (0 no effect, 100 complete control), read-out: Plant response rating, Cocklebur",80%
same,pest or weed control at 500 g/ha,"[3]; pre-emergence, Preemergence, scale 0 to 100 (0 no effect, 100 complete control), read-out: Cocklebur plant response rating",90%
same,plant injury at 125 g/ha,"corn (Zea mays); post-emergence, Postemergence, 125 g ai/ha, scale 0 to 100 (0 no effect, 100 complete control), read-out: Corn plant response rating",0%
same,"Corn plant response rating (crop injury, 0 = no effect, 100 = complete kill) at 500 g/ha","corn (Zea mays); post-emergence, Postemergence, 500 g ai/ha, scale 0 to 100",30%
same,"Corn plant response rating (crop injury, 0 = no effect, 100 = complete kill) at 125 g/ha","corn (Zea mays); pre-emergence, Preemergence, 125 g ai/ha, scale 0 to 100 (0 no effect, 100 complete control)",0%
same,plant injury at 500 g/ha,"corn (Zea mays); pre-emergence, Preemergence, 500 g ai/ha, scale 0 to 100 (0 no effect, 100 complete control), read-out: Corn plant response rating",0%
same,pest or weed control at 125 g/ha,"[4]; post-emergence, Postemergence, scale 0 to 100 (0 no effect, 100 complete control), read-out: Crabgrass plant response rating",60%
same,pest or weed control at 500 g/ha,"[4]; post-emergence, Postemergence, scale 0 to 100, read-out: Plant response rating, Crabgrass",80%
same,pest or weed control at 125 g/ha,"[4]; pre-emergence, Preemergence, scale 0 to 100 (0 no effect, 100 complete control), read-out: Plant response rating, Crabgrass",60%
same,pest or weed control at 500 g/ha,"[4]; pre-emergence, Preemergence, scale 0 to 100 (0 no effect, 100 complete control), read-out: Crabgrass plant response rating",70%
same,pest or weed control at 125 g/ha,"[5]; post-emergence, Postemergence, scale 0 to 100 (0 no effect, 100 complete control), read-out: Foxtail, Giant plant response rating",50%
same,pest or weed control at 500 g/ha,"[5]; post-emergence, Postemergence, scale 0 to 100, read-out: Plant response rating, Foxtail, Giant",80%
same,pest or weed control at 125 g/ha,"[5]; pre-emergence, Preemergence, scale 0 to 100 (0 no effect, 100 complete control), read-out: Plant response rating, Foxtail, Giant",40%
same,pest or weed control at 500 g/ha,"[5]; pre-emergence, Preemergence, scale 0 to 100 (0 no effect, 100 complete control), read-out: Foxtail, Giant plant response rating",80%
same,pest or weed control at 125 g/ha,"[6]; post-emergence, Postemergence, scale 0 to 100 (0 no effect, 100 complete control), read-out: Lambsquarters plant response rating",90%
same,pest or weed control at 500 g/ha,"[6]; post-emergence, Postemergence, scale 0 to 100, read-out: Plant response rating, Lambsquarters",90%
same,pest or weed control at 125 g/ha,"[6]; pre-emergence, Preemergence, scale 0 to 100 (0 no effect, 100 complete control), read-out: Plant response rating, Lambsquarters",90%
same,pest or weed control at 500 g/ha,"[6]; pre-emergence, Preemergence, scale 0 to 100 (0 no effect, 100 complete control), read-out: Lambsquarters plant response rating",90%
same,pest or weed control at 125 g/ha,"[7]; post-emergence, Postemergence, scale 0 to 100 (0 no effect, 100 complete control), read-out: Morningglory plant response rating",90%
same,pest or weed control at 500 g/ha,"[7]; post-emergence, Postemergence, scale 0 to 100, read-out: Plant response rating, Morningglory",90%
same,pest or weed control at 125 g/ha,"[7]; pre-emergence, Preemergence, scale 0 to 100 (0 no effect, 100 complete control), read-out: Plant response rating, Morningglory",80%
same,pest or weed control at 500 g/ha,"[7]; pre-emergence, Preemergence, scale 0 to 100 (0 no effect, 100 complete control), read-out: Morningglory plant response rating",90%
same,pest or weed control at 125 g/ha,"[8]; post-emergence, Postemergence, scale 0 to 100 (0 no effect, 100 complete control), read-out: Pigweed plant response rating",90%
same,pest or weed control at 500 g/ha,"[8]; post-emergence, Postemergence, scale 0 to 100, read-out: Plant response rating, Pigweed",100%
same,pest or weed control at 125 g/ha,"[8]; pre-emergence, Preemergence, scale 0 to 100 (0 no effect, 100 complete control), read-out: Plant response rating, Pigweed",80%
same,pest or weed control at 500 g/ha,"[8]; pre-emergence, Preemergence, scale 0 to 100 (0 no effect, 100 complete control), read-out: Pigweed plant response rating",90%
same,pest or weed control at 125 g/ha,"[9]; post-emergence, Postemergence, scale 0 to 100 (0 no effect, 100 complete control), read-out: Velvetleaf plant response rating",60%
same,pest or weed control at 500 g/ha,"[9]; post-emergence, Postemergence, scale 0 to 100, read-out: Plant response rating, Velvetleaf",70%
same,pest or weed control at 125 g/ha,"[9]; pre-emergence, Preemergence, scale 0 to 100 (0 no effect, 100 complete control), read-out: Plant response rating, Velvetleaf",70%
same,pest or weed control at 500 g/ha,"[9]; pre-emergence, Preemergence, scale 0 to 100 (0 no effect, 100 complete control), read-out: Velvetleaf plant response rating",80%
same,plant injury at 125 g/ha,"[10]; post-emergence, Postemergence, scale 0 to 100 (0 no effect, 100 complete control), read-out: Wheat plant response rating",20%
same,plant injury at 500 g/ha,"[10]; post-emergence, Postemergence, scale 0 to 100, read-out: Plant response rating, Wheat",30%
same,plant injury at 125 g/ha,"[10]; pre-emergence, Preemergence, scale 0 to 100 (0 no effect, 100 complete control), read-out: Plant response rating, Wheat",50%
same,plant injury at 500 g/ha,"[10]; pre-emergence, Preemergence, scale 0 to 100 (0 no effect, 100 complete control), read-out: Wheat plant response rating",60%
same,pest or weed control at 125 g/ha,"[11]; 125 g ai/ha, scale 0 to 100 (0 no effect, 100 complete control), read-out: Blackgrass plant response rating",10%
same,pest or weed control at 500 g/ha,"[11]; 500 g ai/ha, scale 0 to 100, read-out: Plant response rating, Blackgrass",60%
same,pest or weed control at 125 g/ha,"wild oat (Avena fatua); 125 g ai/ha, scale 0 to 100 (0 no effect, 100 complete control), read-out: Oat, Wild plant response rating",10%
same,pest or weed control at 500 g/ha,"wild oat (Avena fatua); 500 g ai/ha, scale 0 to 100, read-out: Plant response rating, Oat, Wild",20%
same,pest or weed control at 1000 g/ha,[12],30%
same,pest or weed control at 1000 g/ha,[13],40%
same,plant injury at 1000 g/ha,rice (Oryza sativa),30%
same,pest or weed control at 1000 g/ha,[14],40%
